Consider 16 compounds from ChEMBL document CHEMBL3991601, “The target landscape of clinical kinase drugs” (Science, 2017).

Active and inactive are the calls of the source. Cut-off read from the data, not from the text of the source, for most assays here: actives have a measured Kd and inactives only a lower limit. Bounds are passed on as bounds.

Assay [1] addresses Serine/threonine-protein kinase MRCK gamma (Homo sapiens, UniProt Q6DT37).
Assay [2] addresses Structural maintenance of chromosomes protein 2 (Homo sapiens, UniProt O95347).
The target of assay [3] is Protein kinase C beta type (Homo sapiens, UniProt P05771).
Sequence of Protein kinase C beta type (P05771 whole entry): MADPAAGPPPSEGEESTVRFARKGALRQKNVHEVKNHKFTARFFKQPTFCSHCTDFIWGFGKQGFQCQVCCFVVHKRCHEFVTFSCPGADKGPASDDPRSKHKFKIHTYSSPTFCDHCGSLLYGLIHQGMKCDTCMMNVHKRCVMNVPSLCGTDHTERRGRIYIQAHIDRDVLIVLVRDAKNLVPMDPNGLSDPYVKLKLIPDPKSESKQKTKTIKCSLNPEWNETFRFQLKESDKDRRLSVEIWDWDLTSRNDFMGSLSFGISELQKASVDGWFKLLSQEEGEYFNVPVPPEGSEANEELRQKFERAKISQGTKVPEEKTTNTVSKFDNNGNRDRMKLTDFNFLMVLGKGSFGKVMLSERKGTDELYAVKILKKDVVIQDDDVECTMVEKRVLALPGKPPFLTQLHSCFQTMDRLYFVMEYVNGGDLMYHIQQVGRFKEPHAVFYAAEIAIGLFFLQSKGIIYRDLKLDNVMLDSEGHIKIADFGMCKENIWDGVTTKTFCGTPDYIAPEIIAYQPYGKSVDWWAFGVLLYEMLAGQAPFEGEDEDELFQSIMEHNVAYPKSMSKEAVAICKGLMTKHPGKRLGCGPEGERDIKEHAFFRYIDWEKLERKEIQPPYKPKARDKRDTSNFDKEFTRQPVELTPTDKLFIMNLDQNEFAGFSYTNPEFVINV
The target of assay [4] is Hepatocyte growth factor receptor (Homo sapiens, UniProt P08581).
Sequence of Hepatocyte growth factor receptor (P08581 whole entry): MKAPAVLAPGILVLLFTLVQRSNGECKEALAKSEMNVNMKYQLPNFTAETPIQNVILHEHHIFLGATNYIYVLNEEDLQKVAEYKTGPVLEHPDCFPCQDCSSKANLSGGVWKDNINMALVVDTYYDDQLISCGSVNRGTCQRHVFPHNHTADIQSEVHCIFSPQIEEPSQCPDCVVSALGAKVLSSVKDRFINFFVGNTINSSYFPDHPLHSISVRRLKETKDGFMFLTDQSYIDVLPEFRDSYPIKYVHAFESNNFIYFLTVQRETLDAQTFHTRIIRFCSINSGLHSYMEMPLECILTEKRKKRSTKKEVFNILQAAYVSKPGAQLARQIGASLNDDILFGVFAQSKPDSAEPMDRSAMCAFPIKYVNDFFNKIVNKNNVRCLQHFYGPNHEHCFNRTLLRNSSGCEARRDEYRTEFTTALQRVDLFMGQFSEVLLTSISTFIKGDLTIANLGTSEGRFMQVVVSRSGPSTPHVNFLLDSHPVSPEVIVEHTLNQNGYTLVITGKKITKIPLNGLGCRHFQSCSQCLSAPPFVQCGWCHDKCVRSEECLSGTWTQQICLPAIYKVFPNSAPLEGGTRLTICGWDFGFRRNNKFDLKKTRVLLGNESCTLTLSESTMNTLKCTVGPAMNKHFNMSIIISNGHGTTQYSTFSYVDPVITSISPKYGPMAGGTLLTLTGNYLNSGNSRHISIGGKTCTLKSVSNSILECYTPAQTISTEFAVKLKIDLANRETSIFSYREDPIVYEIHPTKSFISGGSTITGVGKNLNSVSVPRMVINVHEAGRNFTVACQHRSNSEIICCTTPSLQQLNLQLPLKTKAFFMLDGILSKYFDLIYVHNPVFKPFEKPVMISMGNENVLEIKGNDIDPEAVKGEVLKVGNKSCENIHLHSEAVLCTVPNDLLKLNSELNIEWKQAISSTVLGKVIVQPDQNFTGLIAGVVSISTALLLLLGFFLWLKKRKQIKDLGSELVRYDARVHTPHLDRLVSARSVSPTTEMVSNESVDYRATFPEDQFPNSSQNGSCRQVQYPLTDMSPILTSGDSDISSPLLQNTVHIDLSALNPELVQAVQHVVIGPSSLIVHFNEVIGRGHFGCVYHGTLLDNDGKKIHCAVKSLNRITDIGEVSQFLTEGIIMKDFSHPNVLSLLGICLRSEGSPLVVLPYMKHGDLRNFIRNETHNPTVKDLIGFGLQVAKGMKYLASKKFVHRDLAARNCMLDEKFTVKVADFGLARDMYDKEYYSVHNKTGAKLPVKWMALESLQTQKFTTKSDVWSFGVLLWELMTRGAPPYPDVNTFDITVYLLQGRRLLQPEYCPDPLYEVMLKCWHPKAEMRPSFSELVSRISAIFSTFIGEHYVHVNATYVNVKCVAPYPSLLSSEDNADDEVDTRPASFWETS
The target of assay [5] is T1, Serine/threonine-protein kinase D2 (Homo sapiens, UniProt Q9BZL6).
T1 sequence (Q9BZL6 whole entry): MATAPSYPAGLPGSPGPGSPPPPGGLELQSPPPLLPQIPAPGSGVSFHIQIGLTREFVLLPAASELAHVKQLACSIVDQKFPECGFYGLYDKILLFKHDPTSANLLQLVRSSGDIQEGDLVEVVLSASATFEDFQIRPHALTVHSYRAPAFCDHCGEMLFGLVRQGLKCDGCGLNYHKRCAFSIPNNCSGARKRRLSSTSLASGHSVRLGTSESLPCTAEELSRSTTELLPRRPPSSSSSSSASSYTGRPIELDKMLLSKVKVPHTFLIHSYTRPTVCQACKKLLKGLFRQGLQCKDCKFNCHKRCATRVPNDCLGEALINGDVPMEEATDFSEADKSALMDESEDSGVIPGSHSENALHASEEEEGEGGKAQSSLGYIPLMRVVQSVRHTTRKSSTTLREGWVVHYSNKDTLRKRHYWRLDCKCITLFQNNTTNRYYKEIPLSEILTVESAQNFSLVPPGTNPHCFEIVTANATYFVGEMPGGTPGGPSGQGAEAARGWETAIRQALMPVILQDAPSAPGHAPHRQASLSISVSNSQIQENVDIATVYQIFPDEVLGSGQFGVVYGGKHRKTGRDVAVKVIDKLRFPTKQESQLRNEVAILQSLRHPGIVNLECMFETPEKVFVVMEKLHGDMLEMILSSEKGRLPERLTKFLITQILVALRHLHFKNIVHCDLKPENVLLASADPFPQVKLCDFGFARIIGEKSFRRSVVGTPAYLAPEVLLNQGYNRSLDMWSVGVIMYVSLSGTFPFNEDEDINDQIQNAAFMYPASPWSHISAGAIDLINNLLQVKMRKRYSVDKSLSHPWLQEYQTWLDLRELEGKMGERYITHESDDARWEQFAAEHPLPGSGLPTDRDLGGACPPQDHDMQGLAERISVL

The target of assay [6] is T2, Mitogen-activated protein kinase kinase kinase kinase 2 (Homo sapiens, UniProt Q12851).
T2 sequence (Q12851 whole entry): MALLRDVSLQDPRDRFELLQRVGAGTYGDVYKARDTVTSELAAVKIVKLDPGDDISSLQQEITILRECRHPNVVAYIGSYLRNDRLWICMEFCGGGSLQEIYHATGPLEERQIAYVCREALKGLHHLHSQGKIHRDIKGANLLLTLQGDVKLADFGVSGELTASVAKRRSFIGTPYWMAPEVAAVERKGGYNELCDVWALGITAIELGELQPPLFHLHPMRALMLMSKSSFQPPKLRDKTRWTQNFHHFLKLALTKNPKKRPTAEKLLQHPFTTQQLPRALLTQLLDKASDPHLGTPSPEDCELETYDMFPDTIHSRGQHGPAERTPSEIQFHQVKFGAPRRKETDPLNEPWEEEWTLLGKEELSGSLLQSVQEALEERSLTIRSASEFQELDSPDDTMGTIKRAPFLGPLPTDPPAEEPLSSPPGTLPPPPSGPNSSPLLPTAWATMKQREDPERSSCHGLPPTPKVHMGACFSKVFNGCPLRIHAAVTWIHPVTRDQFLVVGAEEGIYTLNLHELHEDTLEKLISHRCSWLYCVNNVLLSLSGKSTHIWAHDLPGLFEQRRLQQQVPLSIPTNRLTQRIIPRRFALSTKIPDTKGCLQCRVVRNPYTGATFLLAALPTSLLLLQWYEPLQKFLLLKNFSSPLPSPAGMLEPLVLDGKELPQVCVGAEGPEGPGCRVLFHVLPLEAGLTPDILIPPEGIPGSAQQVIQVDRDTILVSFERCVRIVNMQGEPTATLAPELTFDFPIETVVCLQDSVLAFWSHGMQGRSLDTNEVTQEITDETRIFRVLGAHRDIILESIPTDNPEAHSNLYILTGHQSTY

For assay [7], the target named is Dual specificity tyrosine-phosphorylation-regulated kinase 1A (Homo sapiens, UniProt Q13627).
Assay [8] deals with ATP-dependent RNA helicase DDX3X (Homo sapiens, UniProt O00571).
Sequence of ATP-dependent RNA helicase DDX3X (O00571 whole entry): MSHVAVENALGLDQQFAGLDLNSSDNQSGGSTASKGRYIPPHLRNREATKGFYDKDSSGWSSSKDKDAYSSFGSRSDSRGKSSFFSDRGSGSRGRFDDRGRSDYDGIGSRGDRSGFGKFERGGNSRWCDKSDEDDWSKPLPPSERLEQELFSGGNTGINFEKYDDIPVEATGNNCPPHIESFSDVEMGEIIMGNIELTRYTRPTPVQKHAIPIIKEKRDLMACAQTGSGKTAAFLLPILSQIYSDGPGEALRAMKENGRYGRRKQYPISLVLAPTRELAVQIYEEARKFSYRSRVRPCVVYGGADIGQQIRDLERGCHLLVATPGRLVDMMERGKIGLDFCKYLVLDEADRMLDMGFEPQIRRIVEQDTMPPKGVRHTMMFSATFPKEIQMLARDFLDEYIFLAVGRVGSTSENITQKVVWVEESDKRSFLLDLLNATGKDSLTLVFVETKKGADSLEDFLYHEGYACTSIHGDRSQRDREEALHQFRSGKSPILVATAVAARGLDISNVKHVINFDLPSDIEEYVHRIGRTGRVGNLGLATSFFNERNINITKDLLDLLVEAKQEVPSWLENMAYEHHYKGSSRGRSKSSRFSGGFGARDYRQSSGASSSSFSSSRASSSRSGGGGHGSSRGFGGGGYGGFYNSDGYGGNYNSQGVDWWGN
Note: in the data inactive means no Kd found up to 30 µM.

Sequence of Serine/threonine-protein kinase MRCK gamma (Q6DT37 whole entry): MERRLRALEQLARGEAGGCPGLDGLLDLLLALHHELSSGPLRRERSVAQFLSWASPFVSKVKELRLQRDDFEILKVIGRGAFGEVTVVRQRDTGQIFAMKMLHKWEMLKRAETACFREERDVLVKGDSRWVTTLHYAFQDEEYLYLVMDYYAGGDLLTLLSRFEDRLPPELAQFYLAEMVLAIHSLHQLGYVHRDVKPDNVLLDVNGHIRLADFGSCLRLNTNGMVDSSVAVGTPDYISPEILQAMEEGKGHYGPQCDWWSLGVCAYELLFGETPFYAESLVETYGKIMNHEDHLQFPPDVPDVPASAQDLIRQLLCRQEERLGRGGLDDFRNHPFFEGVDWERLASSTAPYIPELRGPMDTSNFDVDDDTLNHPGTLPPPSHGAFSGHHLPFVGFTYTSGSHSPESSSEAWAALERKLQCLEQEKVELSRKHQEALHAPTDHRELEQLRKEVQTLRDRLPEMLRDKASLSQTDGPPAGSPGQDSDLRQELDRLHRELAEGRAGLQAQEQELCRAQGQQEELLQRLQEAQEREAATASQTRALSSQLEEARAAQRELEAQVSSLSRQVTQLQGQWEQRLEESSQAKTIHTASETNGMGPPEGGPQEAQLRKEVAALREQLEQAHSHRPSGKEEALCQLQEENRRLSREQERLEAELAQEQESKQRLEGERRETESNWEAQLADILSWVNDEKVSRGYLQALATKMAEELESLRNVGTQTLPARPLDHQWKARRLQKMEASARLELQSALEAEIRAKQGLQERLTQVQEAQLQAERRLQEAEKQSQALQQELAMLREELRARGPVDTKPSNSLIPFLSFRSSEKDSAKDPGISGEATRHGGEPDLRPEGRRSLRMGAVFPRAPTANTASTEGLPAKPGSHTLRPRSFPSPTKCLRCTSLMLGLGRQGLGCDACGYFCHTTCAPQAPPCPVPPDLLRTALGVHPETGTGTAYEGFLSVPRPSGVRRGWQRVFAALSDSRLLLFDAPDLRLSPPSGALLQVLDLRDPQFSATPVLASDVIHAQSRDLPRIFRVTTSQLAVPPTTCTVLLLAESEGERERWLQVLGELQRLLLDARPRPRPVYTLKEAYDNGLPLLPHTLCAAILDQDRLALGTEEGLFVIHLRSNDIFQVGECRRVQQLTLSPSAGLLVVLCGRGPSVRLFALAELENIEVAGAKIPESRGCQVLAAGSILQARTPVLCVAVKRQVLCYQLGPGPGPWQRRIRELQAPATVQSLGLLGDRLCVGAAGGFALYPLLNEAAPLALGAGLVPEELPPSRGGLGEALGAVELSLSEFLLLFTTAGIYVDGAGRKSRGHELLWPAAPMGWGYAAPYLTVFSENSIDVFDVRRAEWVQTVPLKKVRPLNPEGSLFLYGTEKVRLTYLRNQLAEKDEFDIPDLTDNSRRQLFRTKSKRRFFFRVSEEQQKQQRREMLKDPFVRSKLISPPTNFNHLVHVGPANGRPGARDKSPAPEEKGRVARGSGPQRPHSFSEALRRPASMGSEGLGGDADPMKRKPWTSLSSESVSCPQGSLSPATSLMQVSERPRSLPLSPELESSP

What is called Kd is the free concentration of one partner at which half of the binding sites on the other are occupied at equilibrium, for simple one-to-one binding. `C[C@@H](Oc1cc(C(=O)Nc2ccc(C(=O)N3CCN(C)CC3)cc2)nnc1N)c1c(Cl)ccc(F)c1Cl`: the Kd in assay [1] is > 30 µM (inactive); in assay [2], > 30 µM (inactive); in assay [3], > 30 µM (inactive); in assay [4] it was 0.032 µM; in assay [5], > 30 µM (inactive); in assay [6], 0.122 µM (active). The Kd in assay [7] and in assay [8] was > 30 µM (inactive) each time.

As to `C[C@H]1CNCCCN1S(=O)(=O)c1cccc2cncc(F)c12`, the Kd in assay [1] is > 30 µM (inactive); in assay [2] it was > 30 µM (inactive); in assay [3], > 30 µM (inactive); in assay [4] it was > 30 µM (inactive); in assay [5], 3.7 µM (active); in assay [6] it was > 30 µM (inactive). Besides, the Kd in assay [7] and in assay [8] was > 30 µM (inactive) in each case.

Consider `CC(=O)c1cnc2ccc(-c3cc(Cl)c(O)c(Cl)c3)nc2c1N[C@H]1CC[C@H](CN(C)C)CC1`, for which the dissociation constant (Kd) in assay [1] is 0.063 µM; in assay [2], > 30 µM (inactive); in assay [3], 0.233 µM (active); in assay [4] it was > 30 µM (inactive); in assay [5], 0.069 µM (active); in assay [7], 0.01 µM (active). Moreover, the Kd in assay [8] was > 30 µM (inactive).

For `CCNC(=O)C#Cc1ccc2c(c1)NC(=O)/C2=C(\Nc1ccc(CN(C)C)cc1)c1ccccc1`, the Kd in assay [2], in assay [3], in assay [4], in assay [5], in assay [6] and in assay [7] was > 30 µM (inactive) throughout. Moreover, the Kd in assay [8] was > 30 µM (inactive).

`C=CC(=O)N1CCC[C@H](n2c(=O)n(-c3ccc(Oc4ccccc4)cc3)c3c(N)ncnc32)C1`: the Kd in assay [1], in assay [2], in assay [3], in assay [4], in assay [5] and in assay [6] was > 30 µM (inactive) each time. Further, the Kd in assay [7] and in assay [8] was > 30 µM (inactive) in each case.

With `Cc1nc2cc(-c3nn(C(C)C)c4ncnc(N)c34)ccc2o1`, the Kd in assay [1] is > 30 µM (inactive); in assay [2], > 30 µM (inactive); in assay [3], > 30 µM (inactive); in assay [4], > 30 µM (inactive); in assay [5] it was > 30 µM (inactive); in assay [6], 15.9 µM (active). In addition, the Kd in assay [7] and in assay [8] was > 30 µM (inactive) throughout.

As for `COCc1c(-c2ccc(NC(=O)Nc3cc(C(F)(F)F)ccc3F)c(F)c2)c2c(N)ncnn2c1CN1CCOCC1`, the Kd in assay [2] is > 30 µM (inactive); in assay [3], > 30 µM (inactive); in assay [4] it was > 30 µM (inactive); in assay [5], > 30 µM (inactive); in assay [6] it was 4.16 µM (active); in assay [7], > 30 µM (inactive). For the same compound, the Kd in assay [8] was > 30 µM (inactive).

With `Nc1ncnc2c1c(-c1cccc(OCc3ccccc3)c1)cn2[C@H]1C[C@@H](CN2CCC2)C1` [AEW-541], the Kd in assay [1] is > 30 µM (inactive); in assay [2] it was > 30 µM (inactive); in assay [3] it was > 30 µM (inactive); in assay [4], > 30 µM (inactive); in assay [5], > 30 µM (inactive); in assay [6], 4.58 µM (active). Moreover, the Kd in assay [7] and in assay [8] was > 30 µM (inactive) in each case.

For the compound `Cc1nc(NC(=O)N2CCC[C@H]2C(N)=O)sc1-c1ccnc(C(C)(C)C(F)(F)F)c1` [ALPELISIB], the Kd in assay [1], in assay [2], in assay [3], in assay [4], in assay [5] and in assay [6] was > 30 µM (inactive) throughout. Further, the Kd in assay [7] and in assay [8] was > 30 µM (inactive) in each case.

As to `Cc1csc(-c2nnc(Nc3ccc(Oc4ncccc4-c4ccnc(N)n4)cc3)c3ccccc23)c1` [AMG-900], the Kd in assay [1] was > 30 µM (inactive); in assay [2] it was > 30 µM (inactive); in assay [3], > 30 µM (inactive); in assay [4] it was > 30 µM (inactive); in assay [5], 5.67 µM (active); in assay [6], 0.186 µM (active). Moreover, the Kd in assay [7] and in assay [8] was > 30 µM (inactive) throughout.

For the compound `C=CC(=O)Nc1cc2c(Nc3ccc(F)c(Cl)c3)ncnc2cc1C#CC(C)(C)N1CCN(C)CC1` [AV-412 FREE BASE], the Kd in assay [1], in assay [2], in assay [3], in assay [4], in assay [5] and in assay [6] was > 30 µM (inactive) in each case. For the same compound, the Kd in assay [7] and in assay [8] was > 30 µM (inactive) throughout.

For the compound `COc1cc([C@@H]2c3cc4c(cc3[C@H](O)[C@H]3COC(=O)[C@@H]23)OCO4)cc(OC)c1OC` [AXL-1717], the Kd in assay [1], in assay [2], in assay [3], in assay [4], in assay [5] and in assay [6] was > 30 µM (inactive) throughout. Moreover, the Kd in assay [7] and in assay [8] was > 30 µM (inactive) in each case.

Consider `NC(=O)Nc1cc(-c2cccc(F)c2)sc1C(=O)N[C@H]1CCCNC1` [AZD-7762], for which the Kd is > 30 µM (inactive) in assay [1]; > 30 µM (inactive) in assay [2]; > 30 µM (inactive) in assay [3]; > 30 µM (inactive) in assay [4]; 1.16 µM (active) in assay [5]; 0.05 µM (active) in assay [6]. Further, the equilibrium dissociation constant (Kd) in assay [7] was 1.68 µM (active); in assay [8], > 30 µM (inactive).

On to `Cn1cnc2c(F)c(Nc3ccc(Br)cc3F)c(C(=O)NOCCO)cc21` [BINIMETINIB], for which the Kd in assay [1], in assay [2], in assay [3], in assay [4], in assay [5] and in assay [6] was > 30 µM (inactive) each time. The Kd in assay [7] and in assay [8] was > 30 µM (inactive) each time.

In the case of `CC(C)c1cc(CNc2nc(Nc3cc(C4CC4)[nH]n3)cc(N3CCN(C)CC3)n2)on1` [XL-228], the Kd was > 30 µM (inactive) in assay [2]; > 30 µM (inactive) in assay [3]; > 30 µM (inactive) in assay [4]; 1.37 µM (active) in assay [5]; 0.352 µM (active) in assay [6]; > 30 µM (inactive) in assay [7]. Besides, the Kd in assay [8] was > 30 µM (inactive).

For the compound `C[C@@H](N)c1ccc(C(=O)Nc2ccnc3[nH]ccc23)cc1` [Y-39983], the Kd in assay [2] is > 30 µM (inactive); in assay [3], 6.03 µM (active); in assay [4] it was > 30 µM (inactive); in assay [5] it was 0.572 µM (active); in assay [6], > 30 µM (inactive); in assay [7], > 30 µM (inactive). Besides, the Kd in assay [8] is > 30 µM (inactive).
